Data on 8 compounds can be found in ChEMBL document CHEMBL1201862, “PubChem BioAssay data set” (2004).

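A five-concentration, 48-hour dose response in 96-well plates underlies each endpoint, interpolated linearly between surrounding concentrations. GI50 = concentration required for 50% inhibition of growth.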 The source made the active and inactive calls. No stated cut-off is given here; in the data, active = GI50 up to about 1.1 µM and inactive = higher. Where a SMILES comes first, the peptide text is derived from it. The star is where a group is joined. Boc = CC(C)(C)OC(=O)*

Common to all, as to assay: NCI tumour cell line growth inhibition, 48 h
Assay [1] has as its system OVCAR-5.
In assay [2] the test system is SF-539.
In assay [3] the test system is HCT-15.
For assay [4], the system named is HCT-116.
Assay [5] has as its system COLO 205.
In assay [6] the test system is SW-620.
Assay [7] relates to RPMI-8226.
Assay [8] deals with ACHN.
The subject of assay [9] is MOLT-4.
Assay [10] concerns K562.
Assay [11] concerns SF-295.
Assay [12] relates to HCC 2998.
In assay [13] the test system is OVCAR-3.
The subject of assay [14] is NCI-H460.
Assay [15] deals with M14.
Assay [16] concerns LOX IMVI.
Assay [17] has as its system NCI-H226.
Assay [18] relates to MDA-MB-435.
Assay [19] has as its system MDA-MB-231.

For `S=c1sc2c(n1-c1ccccc1)N=CNC2S` (centres undefined), the GI50 in assay [1] is > 100 µM (inactive); in assay [2] it was 65.3 µM (inactive); in assay [3] it was 97.3 µM; in assay [4], 98.4 µM (inactive); in assay [5], > 100 µM (inactive); in assay [6], > 100 µM (inactive). Moreover, the GI50 in assay [7] was 62.2 µM (inactive); in [8] it was 60.5 µM (inactive); in assay [9] it was 92.5 µM (inactive); in assay [10] it was 63.2 µM (inactive); in assay [11] it was 84.7 µM (inactive); in assay [12] it was 33.1 µM (inactive). Moreover, the GI50 was 77.1 µM (inactive) in assay [13]; > 100 µM (inactive) in assay [14]; > 100 µM (inactive) in assay [15]; > 100 µM (inactive) in [16]; 44.6 µM (inactive) in assay [17].

With `CC(C)(C)OC(=O)NC(Cc1ccc(O)cc1)C(=O)N1CCCC1C(=O)O` (stereo not drawn) (Boc-Tyr-Pro-OH; configuration not given here), the GI50 in [1] was > 100 µM (inactive); in assay [2] it was > 100 µM (inactive); in [3] it was > 100 µM; in assay [4] it was > 100 µM (inactive); in [5], > 100 µM (inactive); in assay [6], > 100 µM (inactive). Moreover, the GI50 in assay [7], in [8], in assay [9], in [10], in [11] and in assay [12] was > 100 µM (inactive) each time. For the same compound, the GI50 in assay [13], in assay [14], in [15], in assay [16] and in assay [17] was > 100 µM (inactive) each time.

For the compound `COc1ccc(Cc2c(=O)[nH]nc3ccccc23)cc1`, the GI50 in assay [1] was > 100 µM (inactive); in assay [2], > 100 µM (inactive); in [3] it was > 100 µM; in [4], > 100 µM (inactive); in assay [5] it was > 100 µM (inactive); in [6], > 100 µM (inactive). For the same compound, the GI50 in [7], in assay [8], in [9], in assay [10], in assay [11] and in assay [12] was > 100 µM (inactive) each time. Moreover, the GI50 in assay [13] is > 100 µM (inactive); in [14], > 100 µM (inactive); in [15], > 100 µM (inactive); in assay [16], > 100 µM (inactive); in [17] it was 85.7 µM (inactive).

For `CC(C)(O)CCc1ccc(O)c2c(=O)c3c(O)c4c(cc3oc12)O[C@H]1OC=C[C@@]41O` [AUSTOCYSTIN D], the GI50 in assay [1] was 0.0615 µM (active); in [2] it was 0.514 µM (active); in [3], < 0.01 µM; in assay [4], 0.0199 µM (active); in [5] it was 0.0109 µM (active); in [6] it was < 0.01 µM (active). The GI50 in assay [7] was 0.475 µM (active); in assay [18], < 0.01 µM (active); in [8], < 0.01 µM (active); in assay [9] it was < 0.0106 µM (active); in [10], 20 µM (inactive); in assay [19] it was 2.26 µM (inactive). Besides, the GI50 in assay [11] is 8.87 µM (inactive); in assay [12], < 0.01 µM (active); in assay [13], < 0.01 µM (active); in assay [14], 0.0507 µM (active); in assay [15], 0.411 µM (active); in assay [16], 9.31 µM (inactive). Further, the GI50 in assay [17] was < 0.01 µM (active).

On to `N#Cc1c(NN)nc(NN)c(C#N)c1-c1ccccc1`, for which the GI50 is > 100 µM (inactive) in assay [1]; > 100 µM (inactive) in [2]; > 100 µM in assay [3]; > 100 µM (inactive) in assay [4]; > 100 µM (inactive) in assay [5]; > 100 µM (inactive) in assay [6]. In addition, the GI50 in [7], in assay [8], in assay [9], in assay [10], in assay [11] and in assay [12] was > 100 µM (inactive) each time. Further, the GI50 was > 100 µM (inactive) in assay [13]; > 100 µM (inactive) in [14]; > 100 µM (inactive) in [15]; > 100 µM (inactive) in [16]; 52.8 µM (inactive) in [17].

On to `c1ccc(-c2nnc(CCCCCCCCc3nnc(-c4ccccc4)o3)o2)cc1`, for which the GI50 is > 100 µM (inactive) in [1]; > 100 µM (inactive) in assay [2]; > 100 µM in assay [3]; 55.6 µM (inactive) in assay [4]; > 100 µM (inactive) in assay [5]; > 100 µM (inactive) in assay [6]. Further, the GI50 in assay [18] was > 100 µM (inactive); in assay [8] it was > 100 µM (inactive); in assay [9], 51.4 µM (inactive); in assay [10], 34.7 µM (inactive); in [19], 12.2 µM (inactive); in [11], > 100 µM (inactive). The GI50 in assay [12] was < 0.01 µM (active); in assay [13], 65 µM (inactive); in assay [14], 50.5 µM (inactive); in [15], > 100 µM (inactive); in [16], 48.9 µM (inactive); in assay [17], > 100 µM (inactive).

For the compound `CSc1cnc2ccccc2c1Sc1c[nH]c2ccccc2c1=O`, the GI50 is 24.4 µM (inactive) in assay [1]; 11.5 µM (inactive) in [2]; 7.1 µM in [3]; 9.48 µM (inactive) in assay [4]; 6.24 µM (inactive) in assay [5]; 3.56 µM (inactive) in assay [6]. The GI50 in assay [7] was 6.65 µM (inactive); in [8], 15.1 µM (inactive); in assay [9] it was 3.28 µM (inactive); in assay [10], 3.46 µM (inactive); in [11] it was 7.59 µM (inactive); in assay [12], 12.9 µM (inactive). Moreover, the GI50 is 5.22 µM (inactive) in assay [13]; 6.75 µM (inactive) in assay [14]; 6.76 µM (inactive) in assay [15]; 11.5 µM (inactive) in assay [16]; 7.31 µM (inactive) in assay [17].

On to `c1ccc2cc(-c3cc4ccccc4s3)ccc2c1`, for which the GI50 in assay [1] is > 100 µM (inactive); in assay [2] it was > 100 µM (inactive); in assay [3] it was > 100 µM; in assay [4], > 100 µM (inactive); in [5], > 100 µM (inactive); in [6], > 100 µM (inactive). For the same compound, the GI50 in assay [7] was > 100 µM (inactive); in assay [8], > 100 µM (inactive); in assay [9], 38.2 µM (inactive); in [10] it was > 100 µM (inactive); in assay [11], > 100 µM (inactive); in assay [12], > 100 µM (inactive). Further, the GI50 in assay [13], in [14], in assay [15], in [16] and in [17] was > 100 µM (inactive) each time.
